Paper PMC11033320, “Activation of p53 signaling and regression of breast and prostate carcinoma cells by spirooxindole-benzimidazole small molecules” (Frontiers in Pharmacology, 2024)

Legend:
SNB-75 = assay: NCI anticancer screening, CNS Cancer SNB-75; assay type: cell-based; settings: Homo sapiens; SNB-75, 10 μM; read-out: % Growth Inhibition (GI %)
Text: (§1) The compound has been processed according to standard method NCI-60 Human Tumor Cell Lines Screen for organic compound at development therapeutic program (DTP). Requests for access to this national resource can be submitted online at: […]

MCF7 = assay: NCI anticancer screening, Breast Cancer MCF7; assay type: cell-based; settings: Homo sapiens; MCF7, 10 μM; read-out: % Growth Inhibition (GI %)
Text: as §1

HS 578T = assay: NCI anticancer screening, Breast Cancer HS 578T; assay type: cell-based; settings: Homo sapiens, read-out: % Growth Inhibition (GI %)
Text: as §1

NCI-H460 = assay: NCI anticancer screening, Non-Small Cell Lung Cancer NCI-H460; assay type: cell-based; settings: Homo sapiens; NCI-H460, 10 μM; read-out: % Growth Inhibition (GI %)
Text: as §1

LOX IMVI = assay: NCI anticancer screening, Melanoma LOX IMVI; assay type: cell-based; settings: Homo sapiens, read-out: % Growth Inhibition (GI %)
Text: as §1

NCI-H322M = assay: NCI anticancer screening, Non-Small Cell Lung Cancer NCI-H322M; assay type: cell-based; settings: Homo sapiens, read-out: % Growth Inhibition (GI %)
Text: as §1

EKVX = assay: NCI anticancer screening, Non-Small Cell Lung Cancer EKVX; assay type: cell-based; settings: Homo sapiens, read-out: % Growth Inhibition (GI %)
Text: as §1

M14 = assay: NCI anticancer screening, Melanoma M14; assay type: cell-based; settings: Homo sapiens; M14, 10 μM; read-out: % Growth Inhibition (GI %)
Text: as §1

SF-539 = assay: NCI anticancer screening, CNS Cancer SF-539; assay type: cell-based; settings: Homo sapiens; SF-539, 10 μM; read-out: % Growth Inhibition (GI %)
Text: as §1

BT-549 = assay: NCI anticancer screening, Breast Cancer BT-549; assay type: cell-based; settings: Homo sapiens; BT-549, 10 μM; read-out: % Growth Inhibition (GI %)
Text: as §1

MDA-MB-468 = assay: NCI anticancer screening, Breast Cancer MDA-MB-468; assay type: cell-based; settings: Homo sapiens, read-out: % Growth Inhibition (GI %)
Text: as §1

SR = assay: NCI anticancer screening, Leukemia SR; assay type: cell-based; settings: Homo sapiens, read-out: % Growth Inhibition (GI %)
Text: as §1

MDA-MB-435 = assay: NCI anticancer screening, Melanoma MDA-MB-435; assay type: cell-based; settings: Homo sapiens; MDA-MB-435, 10 μM; read-out: % Growth Inhibition (GI %)
Text: as §1

NCI/ADR-RES = assay: NCI anticancer screening, Ovarian Cancer NCI/ADR-RES; assay type: cell-based; settings: Homo sapiens, read-out: % Growth Inhibition (GI %)
Text: as §1

UO-31 = assay: NCI anticancer screening, Renal Cancer UO-31; assay type: cell-based; settings: Homo sapiens; UO-31, 10 μM; read-out: % Growth Inhibition (GI %)
Text: as §1

MDA-MB 231 cells = settings: for inhibition: 5 µM
HCT-15 = assay: NCI anticancer screening, Colon Cancer HCT-15; assay type: cell-based; settings: Homo sapiens; HCT-15, 10 μM; read-out: % Growth Inhibition (GI %)
Text: as §1

KM12 = assay: NCI anticancer screening, Colon Cancer KM12; assay type: cell-based; settings: Homo sapiens; KM12, 10 μM; read-out: % Growth Inhibition (GI %)
Text: as §1

SW-620 = assay: NCI anticancer screening, Colon Cancer SW-620; assay type: cell-based; settings: Homo sapiens; SW-620, 10 μM; read-out: % Growth Inhibition (GI %)
Text: as §1

SK-MEL-5 = assay: NCI anticancer screening, Melanoma SK-MEL-5; assay type: cell-based; settings: Homo sapiens; SK-MEL-5, 10 μM; read-out: % Growth Inhibition (GI %)
Text: as §1

SF-268 = assay: NCI anticancer screening, CNS Cancer SF-268; assay type: cell-based; settings: Homo sapiens; SF-268, 10 μM; read-out: % Growth Inhibition (GI %)
Text: as §1

HCT-116 = assay: NCI anticancer screening, Colon Cancer HCT-116; assay type: cell-based; settings: Homo sapiens; HCT-116, 10 μM; read-out: % Growth Inhibition (GI %)
Text: as §1

CCRF-CEM = assay: NCI anticancer screening, Leukemia CCRF-CEM; assay type: cell-based; settings: Homo sapiens, read-out: % Growth Inhibition (GI %)
Text: as §1

OVCAR-4 = assay: NCI anticancer screening, Ovarian Cancer OVCAR-4; assay type: cell-based; settings: Homo sapiens; OVCAR-4, 10 μM; read-out: % Growth Inhibition (GI %)
Text: as §1

OVCAR-8 = assay: NCI anticancer screening, Ovarian Cancer OVCAR-8; assay type: cell-based; settings: Homo sapiens; OVCAR-8, 10 μM; read-out: % Growth Inhibition (GI %)
Text: as §1

SN12C = assay: NCI anticancer screening, Renal Cancer SN12C; assay type: cell-based; settings: Homo sapiens, read-out: % Growth Inhibition (GI %)
Text: as §1

U251 = assay: NCI anticancer screening, CNS Cancer U251; assay type: cell-based; settings: Homo sapiens, U-251; U251, 10 μM; read-out: % Growth Inhibition (GI %)
Text: as §1

SF-295 = assay: NCI anticancer screening, CNS Cancer SF-295; assay type: cell-based; settings: Homo sapiens; SF-295, 10 μM; read-out: % Growth Inhibition (GI %)
Text: as §1

HOP-92 = assay: NCI anticancer screening, Non-Small Cell Lung Cancer HOP-92; assay type: cell-based; settings: Homo sapiens; HOP-92, 10 μM; read-out: % Growth Inhibition (GI %)
Text: as §1

NCI-H23 = assay: NCI anticancer screening, Non-Small Cell Lung Cancer NCI-H23; assay type: cell-based; settings: Homo sapiens; NCI-H23, 10 μM; read-out: % Growth Inhibition (GI %)
Text: as §1

K-562 = assay: NCI anticancer screening, Leukemia K-562; assay type: cell-based; settings: Homo sapiens, K562; K-562, 10 μM; read-out: % Growth Inhibition (GI %)
Text: as §1

TK-10 = assay: NCI anticancer screening, Renal Cancer TK-10; assay type: cell-based; settings: Homo sapiens; TK-10, 10 μM; read-out: % Growth Inhibition (GI %)
Text: as §1

T-47D = assay: NCI anticancer screening, Breast Cancer T-47D; assay type: cell-based; settings: Homo sapiens, T47D, read-out: % Growth Inhibition (GI %)
Text: as §1

SNB-19 = assay: NCI anticancer screening, CNS Cancer SNB-19; assay type: cell-based; settings: Homo sapiens; SNB-19, 10 μM; read-out: % Growth Inhibition (GI %)
Text: as §1

OVCAR-5 = assay: NCI anticancer screening, Ovarian Cancer OVCAR-5; assay type: cell-based; settings: Homo sapiens; OVCAR-5, 10 μM; read-out: % Growth Inhibition (GI %)
Text: as §1

SK-MEL-2 = assay: NCI anticancer screening, Melanoma SK-MEL-2; assay type: cell-based; settings: Homo sapiens; SK-MEL-2, 10 μM; read-out: % Growth Inhibition (GI %)
Text: as §1

| SMILES | inhibition at 10 µM (SNB-75) [%] | inhibition at 10 µM (MCF7) [%] | inhibition at 10 µM (HS 578T) [%] | inhibition at 10 µM (NCI-H460) [%] | inhibition at 10 µM (LOX IMVI) [%] | inhibition at 10 µM (NCI-H322M) [%] | inhibition at 10 µM (EKVX) [%] | inhibition at 10 µM (M14) [%] | inhibition at 10 µM (SF-539) [%] | inhibition at 10 µM (BT-549) [%] | inhibition at 10 µM (MDA-MB-468) [%] | inhibition at 10 µM (SR) [%] | melting point [°C] | inhibition at 10 µM (MDA-MB-435) [%] | inhibition at 10 µM (NCI/ADR-RES) [%] | inhibition at 10 µM (UO-31) [%] | IC50 (MDA-MB 231 cells) [µM] | inhibition (MDA-MB 231 cells) [%] | inhibition at 10 µM (HCT-15) [%] | inhibition at 10 µM (KM12) [%] | also measured |
| --- | --- | --- | --- | --- | --- | --- | --- | --- | --- | --- | --- | --- | --- | --- | --- | --- | --- | --- | --- | --- | --- |
| O=C(c1nc2ccccc2[nH]1)[C@H]1[C@H](c2ccc(Br)cc2)C2CSCN2[C@]12C(=O)Nc1ccccc12 (stereo partly drawn) [Compound 6l, (3S,6′R)-6'-(1H-Benzo [d]imidazole-2-carbonyl)-7'-(4-bromophenyl)-3′,6′,7′,7a′-tetrahydro-1′H-spiro [indoline-3.5′-pyrrolo [1,2-c]thiazol]-2-one] | 68 | 60.6 | 67.6 | 66.2 | 73.2 | 89.9 | 68.8 | 68.6 | 82.4 | 90.2 | 87.2 | 54.1 | 172 to 174 | 67.9 | 83.2 | 48.6 | 4.51 ± 0.203 | 53.59 ± 0.109 | 67 | 59.8 | inhibition at 10 µM (SW-620): 80.7%; inhibition at 10 µM (SK-MEL-5): 84.8%; inhibition at 10 µM (SF-268): 71.5%; inhibition at 10 µM (HCT-116): 59.2%; inhibition at 10 µM (CCRF-CEM): 88.2%; inhibition at 10 µM (OVCAR-4): 70.8%; inhibition at 10 µM (OVCAR-8): 89.8%; inhibition at 10 µM (SN12C): 82.8%; inhibition at 10 µM (U251): 75.8%; inhibition at 10 µM (SF-295): 63.9%; inhibition at 10 µM (HOP-92): 96.9%; inhibition at 10 µM (NCI-H23): 75%; inhibition at 10 µM (K-562): 74.5%; inhibition at 10 µM (TK-10): 145%; inhibition at 10 µM (T-47D): 54.7%; inhibition at 10 µM (SNB-19): 67%; inhibition at 10 µM (OVCAR-5): 95.9%; inhibition at 10 µM (SK-MEL-2): 107% |
| O=C(c1nc2ccccc2[nH]1)[C@H]1[C@H](c2ccccc2O)C2CSCN2[C@]12C(=O)Nc1ccccc12 (stereo partly drawn) [Compound 6j, (3S,6′R)-6'-(1H-Benzo [d]imidazole-2-carbonyl)-7'-(2-hydroxyphenyl)-3′,6′,7′,7a′-tetrahydro-1′H-spiro [indoline-3.5′-pyrrolo [1,2-c]thiazol]-2-one] | 73.1 | 92.4 | 85 | 97.4 | 89.2 | 99.8 | 91.6 | 95.1 | 98.5 | 93.6 | 102 | 94 | 186 to 188 | 92.7 | 95.9 | 73.9 | 4.665 ± 0.009 | 40.8 ± 1.63 | 101 | 82.5 | inhibition at 10 µM (SW-620): 95.4%; inhibition at 10 µM (SK-MEL-5): 94%; inhibition at 10 µM (SF-268): 91.7%; inhibition at 10 µM (HCT-116): 96.3%; inhibition at 10 µM (CCRF-CEM): 101%; inhibition at 10 µM (OVCAR-4): 86.5%; inhibition at 10 µM (OVCAR-8): 97.7%; inhibition at 10 µM (SN12C): 94.3%; inhibition at 10 µM (U251): 95.8%; inhibition at 10 µM (SF-295): 96.3%; inhibition at 10 µM (HOP-92): 97.3%; inhibition at 10 µM (NCI-H23): 96.5%; inhibition at 10 µM (K-562): 96.4%; inhibition at 10 µM (TK-10): 115%; inhibition at 10 µM (T-47D): 80.9%; inhibition at 10 µM (SNB-19): 93.7%; inhibition at 10 µM (OVCAR-5): 102%; inhibition at 10 µM (SK-MEL-2): 104% |
